Broadly, the IC50 is the concentration needed to halve the response being measured.

The results in this text go back to patent publication US20260022142A1, “MACROCYCLIC IMMUNOMODULATORS” (Bristol-Myers Squibb Company, priority 2022, published 2026).

SMILES strings stand for the structures. Bridge positions count the residues as written; N and C are the ends. Square brackets hold non-standard residues; d marks the D form. Peptide text beside a SMILES is read from it. * marks the point of attachment. ξ: configuration not given here. Bip = N[C@@H](Cc1ccc(-c2ccccc2)cc1)C(=O)O; hArg = N=C(N)NCCCC[C@H](N)C(=O)O; Cha = N[C@@H](CC1CCCCC1)C(=O)O; Cit = NC(=O)NCCC[C@H](N)C(=O)O; Thr(3ξ) = CC(O)[C@H](N)C(=O)O; Carboxymethyl = O=C(O)C*; Orn = NCCC[C@H](N)C(=O)O; Aun = NCCCCCCCCCCC(=O)O; Dab = NCC[C@H](N)C(=O)O; Dap = NC[C@H](N)C(=O)O; AEEA = NCCOCCOCC(=O)O

T1 sequence (Q15116 25-288): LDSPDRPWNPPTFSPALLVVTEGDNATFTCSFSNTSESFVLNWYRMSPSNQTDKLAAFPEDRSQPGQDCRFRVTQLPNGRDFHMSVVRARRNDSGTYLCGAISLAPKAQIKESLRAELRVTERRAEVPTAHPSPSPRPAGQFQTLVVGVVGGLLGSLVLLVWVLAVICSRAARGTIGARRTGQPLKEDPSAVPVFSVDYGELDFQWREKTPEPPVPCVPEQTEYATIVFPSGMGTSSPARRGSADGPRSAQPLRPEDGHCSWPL

This assay has as its target T1, PD-1/PD-L1 interaction (PE-labeled human PD-L1-Ig binding to Jurkat cell line over-expressing human PD-1) (Homo sapiens, UniProt Q15116).
T1 construct: expressed in transfected cells; host or cells: Jurkat
The experiment in a line: Jurkat-PD-1 Cell Binding High-Content Screening Assay (CBA). The assay is classed as cell-based. To be noted: Jurkat cell line over-expressing human PD-1; PE-labeled PD-L1-Ig 20 nM final; read-out: Jurkat hPD1-PDL1 IC50. An outline of the steps: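 Jurkat-hPD-1 cells, DMEM/10% FCS; cpd 2 h 37° C; PE-PD-L1-Ig 20 nM final, 1 h; 4% PFA fix + Hoechst 33342, 3× dPBS wash; high-content imaging read-out.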
Regarding `CC(C)C[C@H]1NC(=O)[C@H](CCCN)NC(=O)[C@H](C(C)C)NC(=O)[C@H](Cc2ccc(-c3ccccc3)cc2)NC(=O)[C@H](C(C)C)NC(=O)[C@H](Cc2c[nH]c3ccccc23)NC(=O)[C@H](CC(=O)O)NC(=O)[C@H](Cc2ccc(OCC(=O)O)cc2)NC(=O)[C@H](CN)NC(=O)CSC[C@@H](C(=O)NCCOCCOCC(=O)N[C@@H](CCCCN)C(=O)NCCCCCCCCCCC(=O)O)NC(=O)[C@H](C(C)O)NC(=O)[C@H](C(C)C)NC(=O)[C@H](CC2CCCCC2)NC(=O)[C@H](CC(N)=O)NC1=O` (stereo partly drawn) [Compound 3128] ({CH2CO}-[Dap]Y(Carboxymethyl)DWV[Bip]V[Orn][dL]N[Cha]V[Thr(3ξ)]C[AEEA]K[Aun]-OH; thioether N-14), the IC50 came out at 15.5 nM.
With `CC(C)C[C@H]1NC(=O)[C@H](CCCCN)NC(=O)[C@H](C(C)C)NC(=O)[C@H](Cc2ccc(-c3ccccc3)cc2)NC(=O)[C@H](C(C)C)NC(=O)[C@H](Cc2c[nH]c3ccccc23)NC(=O)[C@H](CC(=O)O)NC(=O)[C@H](Cc2ccc(OCC(=O)O)cc2)NC(=O)[C@H](CCCCNC(=N)N)NC(=O)CSC[C@@H](C(=O)NCCOCCOCC(=O)N[C@@H](CCCCN)C(=O)NCCCCCCCCCCC(=O)O)NC(=O)[C@H](CO)NC(=O)[C@H](C(C)C)NC(=O)[C@H](CC2CCCCC2)NC(=O)[C@H](CC(N)=O)NC1=O` [Compound 3129] ({CH2CO}-[hArg]Y(Carboxymethyl)DWV[Bip]VK[dL]N[Cha]VSC[AEEA]K[Aun]-OH; thioether N-14), the IC50 stood at 53.4 nM.
In the case of `CC(C)C[C@H]1NC(=O)[C@H](CCCN)NC(=O)[C@H](C(C)C)NC(=O)[C@H](Cc2ccc(-c3ccccc3)cc2)NC(=O)[C@H](C(C)C)NC(=O)[C@H](Cc2c[nH]c3ccccc23)NC(=O)[C@H](CC(=O)O)NC(=O)[C@H](Cc2ccc(OCC(=O)O)cc2)NC(=O)[C@H](CCCCNC(=N)N)NC(=O)CSC[C@@H](C(=O)NCC(=O)NCCOCCOCC(=O)N[C@@H](CCCN)C(=O)NCCCCCCCCCCC(=O)O)NC(=O)[C@H](C(C)O)NC(=O)[C@H](C(C)C)NC(=O)[C@H](CC2CCCCC2)NC(=O)[C@H](CCN)NC1=O` (stereo partly drawn) [Compound 3130] ({CH2CO}-[hArg]Y(Carboxymethyl)DWV[Bip]V[Orn][dL][Dab][Cha]V[Thr(3ξ)]CG[AEEA][Orn][Aun]-OH; thioether N-14) it was 16.5 nM; in that of `CC(C)C[C@H]1NC(=O)[C@H](CCCN)NC(=O)[C@H](CCCNC(N)=O)NC(=O)[C@H](Cc2ccc(-c3ccccc3)cc2)NC(=O)[C@H](C(C)C)NC(=O)[C@H](Cc2c[nH]c3ccccc23)NC(=O)[C@H](CC(=O)O)NC(=O)[C@H](Cc2ccc(OCC(=O)O)cc2)NC(=O)[C@H](CN)NC(=O)CSC[C@@H](C(=O)NCCOCCOCC(=O)N[C@@H](CCCCN)C(=O)NCCCCCCCCCCC(=O)O)NC(=O)[C@H](CCCNC(N)=O)NC(=O)[C@H](C(C)C)NC(=O)[C@H](CC2CCCCC2)NC(=O)[C@H](CCN)NC1=O` [Compound 3146] ({CH2CO}-[Dap]Y(Carboxymethyl)DWV[Bip][Cit][Orn][dL][Dab][Cha]V[Cit]C[AEEA]K[Aun]-OH; thioether N-14), 7.8 nM; in that of `CC(C)C[C@H]1NC(=O)[C@H](CCCN)NC(=O)[C@H](C(C)C)NC(=O)[C@H](Cc2ccc(-c3ccccc3)cc2)NC(=O)[C@H](C(C)C)NC(=O)[C@H](Cc2c[nH]c3ccccc23)NC(=O)[C@H](CC(=O)O)NC(=O)[C@H](Cc2ccc(OCC(=O)O)cc2)NC(=O)[C@H](CN)NC(=O)CSC[C@@H](C(=O)NCCOCCOCC(=O)N[C@@H](CCCCN)C(=O)NCCCCCCCCCCC(=O)O)NC(=O)[C@H](C(C)O)NC(=O)[C@H](C(C)C)NC(=O)[C@H](CC2CCCCC2)NC(=O)[C@H](CC(=O)O)NC1=O` (stereo partly drawn) [Compound 3147] ({CH2CO}-[Dap]Y(Carboxymethyl)DWV[Bip]V[Orn][dL]D[Cha]V[Thr(3ξ)]C[AEEA]K[Aun]-OH; thioether N-14), 29.7 nM.
